target: TRPA1 (Homo sapiens, UniProt O75762); test: Determination of TRPA1 activity in vitro (TRPA1 antagonism in vitro); assay type: cell-based; conditions: procedure of Wei et al., Anesthesiology 111 (2009) 147-154
Sequence (O75762 whole entry): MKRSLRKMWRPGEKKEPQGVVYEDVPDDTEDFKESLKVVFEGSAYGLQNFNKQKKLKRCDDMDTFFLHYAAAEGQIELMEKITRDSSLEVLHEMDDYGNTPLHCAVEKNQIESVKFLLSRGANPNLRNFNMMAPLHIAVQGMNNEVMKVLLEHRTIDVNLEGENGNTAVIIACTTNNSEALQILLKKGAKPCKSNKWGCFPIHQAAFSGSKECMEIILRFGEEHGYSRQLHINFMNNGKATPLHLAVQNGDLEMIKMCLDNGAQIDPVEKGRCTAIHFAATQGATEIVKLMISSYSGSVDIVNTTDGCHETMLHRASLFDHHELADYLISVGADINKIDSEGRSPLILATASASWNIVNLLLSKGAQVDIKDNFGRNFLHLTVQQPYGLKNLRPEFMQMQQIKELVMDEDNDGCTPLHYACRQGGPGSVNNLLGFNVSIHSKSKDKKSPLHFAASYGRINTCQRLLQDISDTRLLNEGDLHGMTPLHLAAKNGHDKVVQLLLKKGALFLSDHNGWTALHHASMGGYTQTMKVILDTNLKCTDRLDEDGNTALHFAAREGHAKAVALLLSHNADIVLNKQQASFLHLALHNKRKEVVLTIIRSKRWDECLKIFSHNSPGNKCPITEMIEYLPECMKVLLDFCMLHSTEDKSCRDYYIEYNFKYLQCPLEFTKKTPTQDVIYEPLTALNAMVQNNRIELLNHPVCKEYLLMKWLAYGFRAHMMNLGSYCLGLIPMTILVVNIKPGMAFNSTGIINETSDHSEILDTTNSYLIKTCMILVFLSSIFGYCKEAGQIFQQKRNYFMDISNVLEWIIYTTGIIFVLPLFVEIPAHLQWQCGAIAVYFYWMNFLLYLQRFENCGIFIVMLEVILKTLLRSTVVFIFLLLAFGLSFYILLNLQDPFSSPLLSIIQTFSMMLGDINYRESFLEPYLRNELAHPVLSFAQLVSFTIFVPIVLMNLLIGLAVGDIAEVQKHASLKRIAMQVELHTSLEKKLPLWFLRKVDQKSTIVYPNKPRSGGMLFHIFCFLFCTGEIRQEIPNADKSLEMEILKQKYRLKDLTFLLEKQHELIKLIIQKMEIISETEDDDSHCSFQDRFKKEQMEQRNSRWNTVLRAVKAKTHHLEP

First: 5-Bromo-2-(ethylamino)-N-(2-methylbut-3-yn-2-yl)nicotinanilide [Example 153]
Second: 5-Chloro-N-(2-methylbut-3-yn-yl)-2-(2,2,2-trifluoroethylamino)-nicotinamide [Example 34]
The IC50 of the first is 21-fold higher: 10400 nM for the first, 500 nM for the second. The second is the more potent here.

Compared with `C#CC(C)(C)NC(=O)c1cc(F)cnc1NCCC(F)(F)F` [Example 1, 5-Fluoro-N-(2-methylbut-3-yn-2-yl)-2-(3,3,3-trifluoropropylamino)-nicotinamide], `C#CC(C)(C)NC(=O)c1cc(C(F)(F)F)cnc1NCCC(F)(F)F` [Example 2, N-(2-Methylbut-3-yn-2-yl)-5-(trifluoromethyl)-2-(3,3,3-trifluoropropylamino) nicotinamide] is 6.3-fold lower in IC50: 1900 nM for the first, 300 nM for the second. The second is the more potent here.

Going from `C#CC(C)(C)NC(=O)c1cc(Cl)ccc1NCCC` [Example 3, 5-Chloro-N-(2-methylbut-3-yn-2-ylbut-3)-2-(propylamino)benzamide] to `C#CC(C)(C)NC(=O)c1cc(Cl)ccc1NC(C)C` [Example 4, 5-Chloro-2-(isopropylamino)-N-(2-methylbut-3-yn-2-yl)benzamide], the IC50 rises from 1100 nM to 4700 nM (4.3-fold).

Compared with `C#CC(C)(C)NC(=O)c1cc(Cl)ccc1NCC(F)F` [Example 5, 5-Chloro-2-(2,2-difluoroethylamino)-N-(2-methylbut-3-yn-2-yl)benzamide], `C#CC(C)(C)NC(=O)c1cc2c(cc1NCCC(F)(F)F)OCCO2` [Example 6, N-(2-Methylbut-3-yn-2-yl)-7-(3,3,3-trifluoropropylamino)-2,3-dihydrobenzo[b][1,4]dioxine-6-carboxamide] is 2.3-fold higher in IC50: 5100 nM for the first, 11800 nM for the second.

Compared with `C#CC(C)(C)NC(=O)c1cc2c(cc1NCC(C)C)OCO2` [Example 7, 6-(Isobutylamino)-N-(2-methylbut-3-yn-2-yl)benzo[d][1,3]dioxole-5-carboxamide], `C#CC(C)(C)NC(=O)c1cc2c(cc1NCC(C)C)OCCCO2` [Example 8, 8-(Isobutylamino)-N-(2-methylbut-3 yn-2-yl)-3,4-dihydro-2H-benzo[b][1,4]dioxepine-7-carboxamide] is 4.5-fold higher in IC50: 2900 nM for the first, 13000 nM for the second. The first is the more potent here.

First: C#CC(C)(C)NC(=O)c1cc2c(cc1NCC(C)C)OCCO2 [Example 9, 7-(Isobutylamino)-N-(2-methylbut-3-yn-2-yl)-2,3-dihydrobenzo[b][1,4]dioxine-6-carboxamide]
Second: C#CC(C)(C)NC(=O)c1cc(C(F)(F)F)ccc1NCC(F)F [Example 10, 2-(2,2-Difluoroethylamino)-N-(2-methylbut-3yn-2-yl)-5-(trifluoromethyl)benzamide]
The IC50 of the first is 7.5-fold higher: 11200 nM for the first, 1500 nM for the second.

Going from `C#CC(C)(C)NC(=O)c1cnc(C(F)(F)F)nc1NCCC(F)(F)F` [Example 11, N-(2-Methylbut-3-yn-2-yl)-2-(trifluoromethyl)-4-(3,3,3-trifluoropropylamino)pyrimidine-5-carboxamide] to `C#CC(C)(C)NC(=O)c1cc(C(F)(F)F)ccc1NCCC(F)(F)F` [Example 12, N-(2-Methylbut-3-yn-2-yl)-5-(trifluoromethyl)-2-(3,33-trifluoropropylamino) benzamide], the IC50 falls from 3700 nM to 500 nM (7.4-fold).

First: C#CC(C)(C)NC(=O)c1ccc(Cl)cc1NCCC [Example 13, 4-Chloro-N-(2-methylbut-3-yn-2-yl)-2-(propylamino)benzamide]
Second: C#CC(C)(C)NC(=O)c1cc(Cl)ccc1NCC(F)(F)F [Example 14, 5-Chloro-N-(2-methylbut-3-yn-2-yl)-2-(2,2,2-trifluoroethylamino)-benzamide]
The IC50 of the first is 1.5-fold lower: 800 nM for the first, 1200 nM for the second. The first is the more potent here.

Compared with `C#CC(C)(C)NC(=O)c1cccc(F)c1NCCC(F)(F)F` [Example 15, 3-Fluoro-N-(2-methylbut-3-yn-2-yl)-2-(3,3,3-trifluoropropylamino)-benzamide], `C#CC(C)(C)NC(=O)c1cccc(F)c1NCCC` [Example 16, 3-Fluoro-N-(2-methylbut-3-yn-2-yl)-2-(propylamino)benzamide] is 3.6-fold higher in IC50: 3000 nM for the first, 10800 nM for the second. The first is the more potent here.

Compared with `C#CC(C)(C)NC(=O)c1cc(F)c(F)cc1NC1CCC1` [Example 17, 2-(Cyclobutylamino)-4,5-difluoro-N-(2-methylbut-3-yn-2-yl)benzamide], `C#CC(C)(C)NC(=O)c1cc(C(F)(F)F)ccc1NCC(F)(F)C(F)(F)F` [Example 18, N-(2-Methylbut-3-yn-2-yl)-2-(2,2,3,3,3-pentafluoropropylamino)-5-(trifluoromethyl)benzamide] is 4-fold lower in IC50: 1200 nM for the first, 300 nM for the second.

Compared with `C#CC(C)(C)NC(=O)c1ccccc1NCC(F)(F)C(F)(F)F` [Example 19, N-(2-Methylbut-3-yn-2-yl)-2-(2,2,3,3,3-pentafluoropropylamino)-benzamide], `C#CC(C)(CC)NC(=O)c1cc(F)cnc1NCC(F)F` (centres unmarked) [Example 20, 2-(2,2-Difluoroethylamino)-5-fluoro-N-(3-methylpent-1-yn-3-yl)nicotinamide] is 2.8-fold higher in IC50: 500 nM for the first, 1400 nM for the second. The first is the more potent here.

`C#CC(C)(C)NC(=O)c1cccc(F)c1NC1CCC1` [Example 21, 2-(Cyclobutylamino)-3-fluoro-N-(2-methylbut-3-yin-2-yl)benzamide] and `C#CC(C)(C)NC(=O)c1cc(F)ccc1NCC(F)(F)F` [Example 22, 5-Fluoro-N-(2-methylbut-3-yn-2-yl)-2-(2,2,2-trifluoroethylamino)-benzamide] are within 1.5-fold of each other in IC50: 5200 nM for the first, 7200 nM for the second.

Going from `C#CC(C)(C)NC(=O)c1cc(C(F)(F)F)ccc1NC1CCC1` [Example 23, 2-(Cyclobutylamino)-N-(2-methylbut-3-yn-2-yl)-5-(trifluoromethyl)-benzamide] to `C#CC(C)(C)NC(=O)c1cc(F)ccc1NC1CCC1` [Example 24, 2-(Cyclobutylamino)-5-fluoro-N-(2-methylbut-3-yn-2-yl)benzamide], the IC50 rises from 100 nM to 1300 nM (13-fold).

`C#CC(C)(C)NC(=O)c1cc(F)cnc1NC1CCC1` [Example 25, 2-(Cyclobutylamino)-5-fluoro-N-(2-methylbut-3-yn-2-yl)nicotinamide] and `C#CC(C)(C)NC(=O)c1cc(Cl)cnc1NC(C)C` [Example 26, 5-Chloro-2-(isopropylamino)-N-(2-methylbut-3-yn-2-yl)-nicotinamide] are within 1.5-fold of each other in IC50: 3000 nM for the first, 3300 nM for the second.

Going from `C#CC(C)(C)NC(=O)c1cc(Cl)cnc1NC1CCC1` [Example 27, 5-Chloro-2-(cyclobutylamino)-N-(2-methylbut-3-yn-2-yl)nicotinamide] to `C#CC(C)(C)NC(=O)c1cc(C(F)(F)F)cnc1NC(C)C` [Example 28, 2-(Isopropylamino)-N-(2-methylbut-3-yn-2-yl)-5-(trifluoromethyl)-nicotinamide], the IC50 rises from 700 nM to 1200 nM (1.7-fold).

`C#CC(C)(C)NC(=O)c1cc(F)cnc1NCC(F)(F)C(F)(F)F` [Example 29, 5-Fluoro-N-(2-methylbut-3-yn-2-yl)-2-(2,2,3,3-pentafluoropropyl-amino)nicotinamide] and `C#CC(C)(C)NC(=O)c1cc(C)ccc1NCC(F)(F)C(F)(F)F` [Example 30, 5-Methyl-N-(2-methylbut-3-yn-2-yl)-2-(2,2,3,3,3-pentafluoropropyl-amino)benzamide] are within 1.5-fold of each other in IC50: 400 nM for the first, 300 nM for the second.

`C#CC(C)(C)NC(=O)c1cc(F)ccc1NCC(F)(F)C(F)(F)F` [Example 31, 5-Fluoro-N-(2-methylbut-3-yn-2-yl)-2-(2,2,3,3,3-pentafluoropropylamino) benzamide] and `C#CC(C)(C)NC(=O)c1cc(Cl)cnc1NCC(F)F` [Example 32, 5-Chloro-2-(2,2-difluoroethylamino)-N-(2-methylbut-3-yn-2-yl)nicotinamide] are within 1.5-fold of each other in IC50: 2600 nM for the first, 3800 nM for the second.

First: C#CC(C)(C)NC(=O)c1cc(F)cnc1NCC(F)(F)F [Example 33, 5-Fluoro-N-(2-methylbut-3-yn-2-yl)-2-(2,2,2-trifluoroethylamino)-nicotinamide]
Second: C#CC(C)(C)NC(=O)c1cc(C(F)(F)F)cnc1NCC(F)(F)F [Example 35, N-(2-Methylbut-3-yn-2-yl)-2-(2,2,2-trifluoroethylamino)-5-(trifluoromethyl)nicotinamide]
The IC50 of the first is 6-fold higher: 3000 nM for the first, 500 nM for the second. The second is the more potent here.

`C#CC(C)(C)NC(=O)c1cc(C#N)ccc1NC1CCC1` [Example 36, 5-Cyano-2-(cyclobutylamino)-N-(2-methylbut-3-yn-2-yl)benzamide] and `C#CC(C)(C)NC(=O)c1ccc(C#N)cc1NC1CCC1` [Example 37, 4-Cyano-2-(cydclobutylamino)-N-(2-methylbut-3-yn-2-yl)benzamide] are within 1.5-fold of each other in IC50: 4200 nM for the first, 3200 nM for the second.

Going from `C#CC(C)(C)NC(=O)c1cc(F)c(F)cc1NCC(F)(F)F` [Example 38, 4,5-Difluoro-N-(2-methylbut-3-yn-2-yl)-2-(2,2,2-trifluoroethylamino)-benzamide] to `C#CC(C)(C)NC(=O)c1cc(C(F)(F)F)ccc1NCC(F)(F)F` [Example 39, N-(2-Methylbut-3-yn-2-yl)-2-(2,2,2-trifluoroethylamino)-5-(trifluoromethyl) benzamide], the IC50 falls from 2500 nM to 600 nM (4.2-fold).

Compared with `C#CC(C)(C)NC(=O)c1cc(C)ccc1NCC(F)(F)F` [Example 40, 5-Methyl-N-(2-methylbut-3-yn-2-yl)-2-(2,2,2-trifluoroethylamino)-benzamide], `C#CC(C)(C)NC(=O)c1cc(Cl)cnc1NCCC(F)(F)F` [Example 41, 5-Chloro-N-(2-methylbut-3yn-2-yl)-2-(3,3,3-trifluoropropylamino)-nicotinamide] is 5.8-fold lower in IC50: 2900 nM for the first, 500 nM for the second. The second is the more potent here.

First: C#CC(C)(C)NC(=O)c1cc(F)c(F)cc1NCCCC [Example 42, 2-(Butylamino)-4,5-difluoro-N-(2-methylbut-3-yn-2-yl)benzamide]
Second: C#CC(CC)(CC)NC(=O)c1cc(Br)ccc1NCCOC [Example 43, 5-Bromo-(3-ethylpent-1-yn-3yl)-2-(2-methoxyethylamino)-benzamide]
The IC50 of the first is 2-fold lower: 500 nM for the first, 1000 nM for the second. The first is the more potent here.

First: C#CC(CC)(CC)NC(=O)c1cc(Cl)ccc1NCCOC [Example 44, 5-Chloro-N-(3-ethylpent-1-yn-3yl)-2-(2-methoxyethylamino)-benzamide]
Second: C#CC(CC)(CC)NC(=O)c1cc(F)c(F)cc1NCCOC [Example 45, N-(3-Ethylpent-1-yn-3-yl)-4,5-difluoro-2-(2-methoxyethylamino)-benzamide]
The IC50 of the first is 1.5-fold lower: 1300 nM for the first, 2000 nM for the second.

`C#CC(CC)(CC)NC(=O)c1cc(C(F)(F)F)ccc1NCCOC` [Example 46, N-(3-Ethylpent-1-yn-3-yl)-2-(2-methoxyethylamino)-5-(trifluoro-methyl)benzamide] gave an IC50 of 500 nM.

Reference: US9533952B2, “N-prop-2-ynyl carboxamide derivatives and their use as TRPA1 antagonists” (Orion Corporation, priority 2012, dated 2017)
